Results as given in patent US20130109721A1, “FAAH Inhibitors” (Ironwood Pharmaceuticals, Inc., priority 2009, published 2013).
pIC50: −log10 of the molar value.

target: T1, FAAH (Homo sapiens, UniProt O00519); assay: FAAH inhibition, human brain membrane homogenate assay; type: biochemical; conditions: average; FAAH extracted from human brain homogenate; read-out: Human brain FAAH Extract IC50
T1 construct: FAAH activity was assayed in the respective homogenates described herein (Rat brain, Mouse brain or Human brain); tissue Analytical Biological Services (ABS), Inc; host or cells: human brain cortex membrane homogenate
T1 sequence (O00519 1-579): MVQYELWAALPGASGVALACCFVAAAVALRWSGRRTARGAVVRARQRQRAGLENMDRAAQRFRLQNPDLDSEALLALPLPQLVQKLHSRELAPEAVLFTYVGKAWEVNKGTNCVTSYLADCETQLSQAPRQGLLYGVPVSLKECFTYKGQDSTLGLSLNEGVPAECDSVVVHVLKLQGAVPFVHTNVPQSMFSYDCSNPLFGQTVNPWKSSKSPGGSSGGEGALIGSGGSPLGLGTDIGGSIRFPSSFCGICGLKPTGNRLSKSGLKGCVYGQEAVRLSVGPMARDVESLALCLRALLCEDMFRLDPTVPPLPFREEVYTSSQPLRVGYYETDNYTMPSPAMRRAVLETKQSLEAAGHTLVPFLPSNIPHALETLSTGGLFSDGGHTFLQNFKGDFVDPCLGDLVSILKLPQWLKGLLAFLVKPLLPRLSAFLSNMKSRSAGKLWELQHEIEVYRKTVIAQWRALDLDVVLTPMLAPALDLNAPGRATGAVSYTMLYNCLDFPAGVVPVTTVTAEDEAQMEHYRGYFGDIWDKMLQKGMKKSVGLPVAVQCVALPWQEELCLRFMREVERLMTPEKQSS
Procedure: About 10 g of frozen normal human brain cortex tissue was obtained (e.g., from Analytical Biological Services (ABS), Inc. (Wilmington, Del.)). The brain tissue was thawed and transferred to a large ceramic mortar on ice. 50 mL of ice-cold “homogenization buffer” (20 mM HEPES buffer, pH 7.0, with 1 mM MgCl2) was added to the mortar and the tissue was homogenized with a pestle. The homogenate was centrifuged at 36,500 g for 20 minutes at 4° C. The supernatants were discarded and the pellets were re-suspended in homogenization buffer and centrifuged as before. The supernatants were again discarded and the pellets were re-suspended in 30 mL homogenization buffer and incubated in a 37° C. water bath for 20 minutes. The homogenate was then centrifuged as before. The supernatant was discarded and the membrane pellets were re-suspended in 30 mL “resuspension buffer” (50 mM Tris-HCl buffer, pH 7.4, containing 1 mM EDTA and 3 mM MgCl2). A Bradford Protein assay was performed to determine protein concentration. The protein was aliquotted into screw cap Cryo tubes each containing ˜200 μL, flash frozen in liquid nitrogen and stored at −80° C. until used for the assay.
FAAH activity was assayed in the respective homogenates described herein (Rat brain, Mouse brain or Human brain) for certain exemplary substrate compounds using a modification of the method of Omeir et al. (1995 Life Sci 56:1999) and Fowler et al. (1997 J. Pharmacol Exp Ther 283:729). For assay of FAAH activity in rat brain membrane (RBM) homogenates, RBM homogenates (7 μg protein in 20 μL final volume of 10 mM Tris pH 6.5) were mixed with 180 μL of a mixture of the following: 2.0 μM unlabelled anandamide, 0.03 μCi radio labeled anandamide [ethanolamine 1-^3H] (40-60 Cis/mmol, product number ART-626, American Radiolabeled Chemicals, St. Louis, Mo.), 1 mg/mL Bovine Serum Albumin (fatty acid-free BSA, electrophoresis grade, Sigma, St. Louis, Mo.), 10 mM Tris-HCl (pH 6.5), and 1 mM EDTA in the presence and absence of test compounds (vehicle was DMSO at a final concentration of 1%) and incubated for 10 minutes at 37° C. Samples were placed on ice to terminate the reactions.
^3H-ethanolamine product and un-reacted ^3H-anandamide substrate were then separated either: (1) by using chloroform/methanol extraction or (2) by passing the reaction mixture through a glass fiber filter containing activated charcoal. Samples were extracted with chloroform/methanol by adding 0.4 mL of chloroform/methanol (1:1 v/v), vigorously mixing the samples, and separating the aqueous and organic phases by centrifugation. Radioactivity (corresponding to FAAH-catalyzed breakdown of ^3H-anandamide) found in aliquots (0.2 mL) of the aqueous phase was determined by liquid scintillation counting with quench correction. IC50 values were determined as described by Jonsson et al. (2001 Br. J. Pharmacol. 133:1263). Alternatively, reactions were purified using a modification of the solid-phase extraction method described by Wilson et al (2003 Anal. Biochem. 318:270). This method was modified as follows: after reactions were incubated at 37° C. for 10 minutes and chilled on ice, the reaction mixtures were acidified by adding 10 μL of sodium phosphate solution [0.5M (pH 2.0)]. Next, 90 μL aliquots of the acidified reaction mixtures were applied to activated charcoal (that had been previously washed with methanol as described by Wilson et al. (supra)) containing 80 μL of water on top of a glass fiber filter, centrifuged, and the radioactivity in the eluate was counted as described previously by Wilson et al. (supra).
Table 1 provides activity data for certain compounds tested for inhibition of FAAH using the FAAH rat, mouse and human brain homogenate assays. […]

First: COc1cc(NC(=O)C(=O)c2cc(C)n(Cc3ccc(Cl)cc3)c2C)ccn1 [Compound I-01, 2-(1-(4-chlorobenzyl)-2,5-dimethyl-1H-pyrrol-3-yl)-N-(2-methoxypyridin-4-yl)-2-oxoacetamide]
Second: COc1cc(NC(=O)C(=O)c2cc(C)n(Cc3ccc(F)cc3)c2C)ccn1 [Compound I-17, 2-(1-(4-fluorobenzyl)-2,5-dimethyl-1H-pyrrol-3-yl)-N-(2-methoxypyridin-4-yl)-2-oxoacetamide]
The pIC50 of the first is 0.36 log units higher: 6.27 for the first, 5.91 for the second.

`Cc1c(C(=O)C(=O)Nc2ccncc2)c2cc(Cl)sc2n1Cc1ccc(Cl)cc1` [Compound I-02, 2-(2-chloro-6-(4-chlorobenzyl)-5-methyl-6H-thieno[2,3-b]pyrrol-4-yl)-2-oxo-N-(pyridin-4-yl)acetamide] and `COc1cc(NC(=O)C(=O)c2c(C)n(Cc3ccc(Cl)cc3)c3sc(Cl)cc23)ccn1` [Compound I-03, 2-(2-chloro-6-(4-chlorobenzyl)-5-methyl-6H-thieno[2,3-b]pyrrol-4-yl)-N-(2-methoxypyridin-4-yl)-2-oxoacetamide] are within 0.2 log units of each other in pIC50: 7.01 for the first, 7.03 for the second.

Compared with `Cc1cc2c(s1)c(C(=O)C(=O)Nc1ccncc1)c(C)n2Cc1ccc(Cl)cc1` [Compound I-04, 2-(4-(4-chlorobenzyl)-2,5-dimethyl-4H-thieno[3,2-b]pyrrol-6-yl)-2-oxo-N-(pyridin-4-yl)acetamide], `COc1cc(NC(=O)C(=O)c2c(C)n(Cc3ccc(Cl)cc3)c3cc(C)sc23)ccn1` [Compound I-05, 2-(4-(4-chlorobenzyl)-2,5-dimethyl-4H-thieno[3,2-b]pyrrol-6-yl)-N-(2-methoxypyridin-4-yl)-2-oxoacetamide] is 1.11 log units higher in pIC50: 7.29 for the first, 8.40 for the second. The second is the more potent here.

Compared with `Cc1c(C(=O)C(=O)Nc2cccc(Cl)c2)c2sccc2n1Cc1ccc(Cl)cc1` [Compound I-06, 2-(4-(4-chlorobenzyl)-5-methyl-4H-thieno[3,2-b]pyrrol-6-yl)-N-(3-chlorophenyl)-2-oxoacetamide], `COc1cc(NC(=O)C(=O)c2c(C)n(Cc3ccc(Cl)cc3)c3ccsc23)ccn1` [Compound I-07, 2-(4-(4-chlorobenzyl)-5-methyl-4H-thieno[3,2-b]pyrrol-6-yl)-N-(2-methoxypyridin-4-yl)-2-oxoacetamide] is 1.92 log units higher in pIC50: 5.82 for the first, 7.74 for the second. The second is the more potent here.

`COc1cc(NC(=O)C(=O)c2cc(-c3ccccc3)n(Cc3ccc(Cl)cc3)c2C)ccn1` [Compound I-27, 2-(1-(4-chlorobenzyl)-2-methyl-5-phenyl-1H-pyrrol-3-yl)-N-(2-methoxypyridin-4-yl)-2-oxoacetamide] and `Cc1cc(C(=O)C(=O)Nc2ccccc2)c(C)n1Cc1ccc(Cl)cc1` [Compound I-32, 2-(1-(4-chlorobenzyl)-2,5-dimethyl-1H-pyrrol-3-yl)-2-oxo-N-phenylacetamide] cannot be ordered by pIC50: less than 4.30 for the first, less than 5.30 for the second.

Compared with `Cc1cc(C(=O)C(=O)Nc2ccnc(Cl)c2)c(C)n1Cc1ccc(Cl)cc1` [Compound I-28, 2-(1-(4-chlorobenzyl)-2,5-dimethyl-1H-pyrrol-3-yl)-N-(2-chloropyridin-4-yl)-2-oxoacetamide], `Cc1cc(C(=O)C(=O)Nc2ccncc2)c(C)n1Cc1ccc(Cl)cc1` [Compound I-30, 2-(1-(4-chlorobenzyl)-2,5-dimethyl-1H-pyrrol-3-yl)-2-oxo-N-(pyridin-4-yl)acetamide] is 0.58 log units lower in pIC50: 6.05 for the first, 5.47 for the second. The first is the more potent here.

With `Cc1cc(C(=O)C(=O)Nc2cccnc2)c(C)n1Cc1ccc(Cl)cc1` [Compound I-31, 2-(1-(4-chlorobenzyl)-2,5-dimethyl-1H-pyrrol-3-yl)-2-oxo-N-(pyridin-3-yl)acetamide] the pIC50 was 5.49.
